Key:
[1] = test system: HCT116 colon cancer cells; assay: Apoptotic nuclei in HCT116 cells transfected with DNA vectors expressing the constructs; type: cell-based
Description: FIG. 1 is a graph reporting exemplary data showing 3-box dominant negative forms of CEBPD promote apoptotic death of cancer cells. Replicate cultures of HCT116 colon cancer cells were transfected with DNA vectors expressing D-mut (a control peptide containing only the leucine zipper domain of CEBPD with all leucines in position 5 (also referred to as position “d”) of the heptad repeats mutated to glycine to suppress leucine zipper binding activity), D-1234, D-123, and D-234. Three days later, transfected cells were scored for proportion with apoptotic nuclei. Data represent means±SEM (n=4). P values vs D-mut (T-test): D-1234, p=0.0005; D-123, p=0.0014; D-234, p=0.0003.
FIG. 2 is a graph reporting exemplary data showing 2-box dominant negative forms of CEBPD promote apoptotic death of cancer cells. Replicate cultures of HCT116 cells were transfected with DNA vectors expressing D-mut, D-1234, D-12, D-23, or D-34. Three days later, transfected cells were scored for proportion with apoptotic nuclei. Data represent means±SEM (n=12 from 3 independent experiments). P values vs D-mut: D-1234, p<0.0001; D-12, p=0.056; D-23, p<0.001; D-34, p=0.0008.
FIG. 12 is a graph reporting exemplary data showing D-123EWE and D-123EKE peptides promote apoptotic death of cancer cells. Replicate cultures of HCT116 cells were transfected with an empty DNA vector or DNA vectors expressing D-123, D-123EWE, or D-123EKE. Two days later, transfected cells were scored for proportion with apoptotic nuclei. Data are pooled from two independent experiments, each with n=4. Data represent means±SEM.

[2] = test system: T98G, MDA-MB-231, A375, Shep21N, and CHLA255 cell lines; assay: Cell numbers after 6 days of peptide treatment in a panel of cancer cell lines; type: cell-based; settings: medium with 2% fetal bovine serum, five cell lines
Method: FIGS. 3A-3E are graphs reporting exemplary data showing truncated dominant negative forms of CEBPD reduce cancer cell numbers. Replicate cultures of T98G (FIG. 3A), MDA-MB-231 (FIG. 3B), A375 (FIG. 3C), Shep21N (FIG. 3D), and CHLA255 (FIG. 3E) cell lines were treated with CP-D-123 at the indicated concentrations for 6 days in culture medium containing 2% fetal bovine serum and then assessed for cell numbers. Values are given as means±SEM (N=3 replicate cultures).
FIGS. 4A-4E are graphs reporting exemplary data showing truncated dominant negative forms of CEBPD reduce cancer cell numbers. Replicate cultures of T98G (FIG. 4A), MDA-MB-231 (FIG. 4B), A375 (FIG. 4C), Shep21N (FIG. 4D), and CHLA255 (FIG. 4E) cell lines were treated with CP-D-123, CP-D-234, and Bpep (at 20 μM in T98G, MDA-MB-231, A375 only) at the indicated concentrations for 6 days in culture medium containing 2% fetal bovine serum and then assessed for cell numbers. Values are given as means±SEM (N=3 replicate cultures).

[3] = HCT116, three days after transfection, control D-mut
[4] = HCT116, two days after transfection, compared with D-123

Row | Substance | Proportion of transfected cells with apoptotic nuclei [1, 3] | further results
1 | KLVELSAENEKLHQRVEQLTR (SEQ ID NO: 50 - D-123) [Construct D-123] | comparable rates to the full length D-1234 construct | 
2 | ENEKLHQRVEQLTRDLAGLRQ (SEQ ID NO: 52 - D-234) [Construct D-234] | comparable rates to the full length D-1234 construct | 
3 | ELVELEA KNEKLKQ EVEQLER (ELVELEAKNEKLKQEVEQLER; SEQ ID NO: 100 - D-123EKE) [Construct D-123EKE] |  | Proportion of transfected cells with apoptotic nuclei [1, 4]: activity comparable or greater to that of the D-123 peptide
4 | ELVELEA ENEKLHQ EVEQLER (ELVELEAENEKLHQEVEQLER; SEQ ID NO: 90 - D-123EWE) [Construct D-123EWE] |  | Proportion of transfected cells with apoptotic nuclei [1, 4]: activity comparable or greater to that of the D-123 peptide
5 | KLVELSAENEKLHQ (SEQ ID NO: 54 - D-12) [Construct D-12] | active in causing apoptosis | 
6 | ENEKLHQRVEQLTR (SEQ ID NO: 56 - D-23) [Construct D-23] | active in causing apoptosis | 
7 | RVEQLTRDLAGLRQ (SEQ ID NO: 58 - D-34) [Construct D-34] | active in causing apoptosis | 
8 | RQIKIWFQNRRMKWKKENEKLHQRVEQLTRDLAGLRQ (SEQ ID NO: 53 - CP-D-234) |  | Reduction of cell numbers [2]: lower and less consistent in activity than CP-D-123
